Data from ChEMBL document CHEMBL5113409, “Design and synthesis of proteolysis targeting chimeras (PROTACs) as an EGFR degrader based on CO-1686” (Eur J Med Chem, 2022).
Active and inactive are the calls of the source. No cut-off for these calls is given here.

Columns and labels:
NCI-H1975 [1] = assay: Induction of cell cycle arrest in human NCI-H1975 cells assessed as accumulation at G2/M phase at 0.5 uM incubated for 48 hrs by propidium iodide staining based flow cytometry (reference value: 3.68%); format: functional
NCI-H1975 [2] = assay: Induction of apoptosis in human NCI-H1975 cells assessed as late apoptosis cells level at 1 uM incubated for 48 hrs by Annexin-V/propidium iodide staining based biparametric cytofluorometric assay (reference value: 2.46%); format: functional
NCI-H1975 [3] = assay: Induction of apoptosis in human NCI-H1975 cells assessed as late apoptosis cells level at 0.25 uM incubated for 48 hrs by Annexin-V/propidium iodide staining based biparametric cytofluorometric assay (reference value: 2.46%); format: functional
[4] = tested on: Protein cereblon/Epidermal growth factor receptor (Homo sapiens), P00533+Q96SW2 [L858R,T790M]; assay: Protac activity at CRBN/EGFR L858R/T790M mutant in human NCI-H1975 cells assessed as L858R/T790M mutant degradation at 3 uM incubated for 48 hrs by Western blot analysis; format: cell-based
NCI-H1975 [5] = assay: Induction of cell cycle arrest in human NCI-H1975 cells assessed as accumulation at G2/M phase at 0.25 uM incubated for 48 hrs by propidium iodide staining based flow cytometry (reference value: 3.68%); format: functional
NCI-H1975 [6] = assay: Anti-proliferative activity against human NCI-H1975 cells assessed as reduction in cell proliferation incubated for 72 hrs by MTT assay; format: functional, cell-based; settings: NCI-H1975, 72 h
Homo sapiens = species: Homo sapiens; assay: Selectivity index, ratio of IC50 for wild type EGFR (unknown origin) to IC50 for Protein cereblon/Epidermal growth factor receptor L858R/T790M mutant
[7] = target: Epidermal growth factor receptor (Homo sapiens, UniProt P00533); assay: Inhibition of wild type EGFR (unknown origin) incubated for 10 mins by HTRF KinEASE-TK assay
NCI-H1975 [8] = assay: Induction of cell cycle arrest in human NCI-H1975 cells assessed as accumulation at S phase at 0.5 uM incubated for 48 hrs by propidium iodide staining based flow cytometry (reference value: 37.13%); format: functional
NCI-H1975 [9] = assay: Induction of cell cycle arrest in human NCI-H1975 cells assessed as accumulation at G0/G1 phase at 0.5 uM incubated for 48 hrs by propidium iodide staining based flow cytometry (reference value: 59.18%); format: functional
NCI-H1975 [10] = assay: Induction of cell cycle arrest in human NCI-H1975 cells assessed as accumulation at S phase at 0.25 uM incubated for 48 hrs by propidium iodide staining based flow cytometry (reference value: 37.13%); format: functional
[11] = target: Epidermal growth factor receptor (Homo sapiens, UniProt P00533, L858R/T790M); assay: Inhibition of EGFR L858R/T790M mutant (unknown origin) incubated for 35 mins by HTRF KinEASE-TK assay
NCI-H1975 [12] = assay: Induction of cell cycle arrest in human NCI-H1975 cells assessed as accumulation at G2/M phase at 1 uM incubated for 48 hrs by propidium iodide staining based flow cytometry (reference value: 3.68%); format: functional
[13] = target: Protein cereblon/Epidermal growth factor receptor (Homo sapiens, UniProt P00533+Q96SW2, T790M/L858R); assay: (§1) Protac activity at CRBN/EGFR L858R/T790M mutant in human NCI-H1975 cells assessed as L858R/T790M mutant degradation incubated for 48 hrs by Western blot analysis; format: cell-based
[14] = tested on: Protein cereblon/Epidermal growth factor receptor (Homo sapiens), P00533+Q96SW2 [L858R,T790M]; assay: as §1; format: cell-based; settings: DDE = dose-dependent effect
NCI-H1975 [15] = assay: Induction of cell cycle arrest in human NCI-H1975 cells assessed as accumulation at S phase at 1 uM incubated for 48 hrs by propidium iodide staining based flow cytometry (reference value: 37.13%); format: functional
[16] = tested on: Protein cereblon/Epidermal growth factor receptor (Homo sapiens), P00533+Q96SW2 [L858R,T790M]; assay: Protac activity at CRBN/EGFR L858R/T790M mutant in human NCI-H1975 cells assessed as L858R/T790M mutant degradation at 0.3 uM incubated up to 36 hrs by Western blot analysis; format: cell-based; settings: TDE = time-dependent effect
A549 = assay: Anti-proliferative activity against human A549 cells assessed as reduction in cell proliferation incubated for 72 hrs by MTT assay; format: functional, cell-based; settings: A549, 72 h
NCI-H1975 [17] = assay: Induction of cell cycle arrest in human NCI-H1975 cells assessed as accumulation at G0/G1 phase at 1 uM incubated for 48 hrs by propidium iodide staining based flow cytometry (reference value: 59.18%); format: functional
NCI-H1975 [18] = assay: Induction of apoptosis in human NCI-H1975 cells assessed as viable cells level at 1 uM incubated for 48 hrs by Annexin-V/propidium iodide staining based biparametric cytofluorometric assay (reference value: 93.9%); format: functional
NCI-H1975 [19] = assay: Induction of apoptosis in human NCI-H1975 cells assessed as necrosis cells level at 0.5 uM incubated for 48 hrs by Annexin-V/propidium iodide staining based biparametric cytofluorometric assay (reference value: 2.46%); format: functional
NCI-H1975 [20] = assay: Induction of apoptosis in human NCI-H1975 cells assessed as necrosis cells level at 1 uM incubated for 48 hrs by Annexin-V/propidium iodide staining based biparametric cytofluorometric assay (reference value: 2.46%); format: functional
NCI-H1975 [21] = assay: Induction of cell cycle arrest in human NCI-H1975 cells assessed as accumulation at G0/G1 phase at 0.25 uM incubated for 48 hrs by propidium iodide staining based flow cytometry (reference value: 59.18%); format: functional
NCI-H1975 [22] = assay: Induction of apoptosis in human NCI-H1975 cells assessed as viable cells level at 0.5 uM incubated for 48 hrs by Annexin-V/propidium iodide staining based biparametric cytofluorometric assay (reference value: 93.9%); format: functional
NCI-H1975 [23] = assay: Induction of apoptosis in human NCI-H1975 cells assessed as viable cells level at 0.25 uM incubated for 48 hrs by Annexin-V/propidium iodide staining based biparametric cytofluorometric assay (reference value: 93.9%); format: functional
NCI-H1975 [24] = assay: Induction of apoptosis in human NCI-H1975 cells assessed as early apoptosis cells level at 0.25 uM incubated for 48 hrs by Annexin-V/propidium iodide staining based biparametric cytofluorometric assay (reference value: 2.26%); format: functional
NCI-H1975 [25] = assay: Induction of apoptosis in human NCI-H1975 cells assessed as late apoptosis cells level at 0.5 uM incubated for 48 hrs by Annexin-V/propidium iodide staining based biparametric cytofluorometric assay (reference value: 2.46%); format: functional
PC-9 = assay: Anti-proliferative activity against human PC-9 cells assessed as reduction in cell proliferation incubated for 72 hrs by MTT assay; format: functional, cell-based; settings: PC-9, 72 h
[26] = tested on: Protein cereblon/Epidermal growth factor receptor (Homo sapiens), P00533+Q96SW2 [L858R,T790M]; assay: Protac activity at CRBN/EGFR L858R/T790M mutant in human NCI-H1975 cells assessed as L858R/T790M mutant degradation incubated for 48 hrs by Western blot analysis relative to untreated control; format: cell-based
NCI-H1975 [27] = assay: Induction of apoptosis in human NCI-H1975 cells incubated for 48 hrs by Annexin-V/propidium iodide staining based biparametric cytofluorometric assay; format: functional, cell-based; settings: DDE = dose-dependent effect
NCI-H1975 [28] = assay: Induction of apoptosis in human NCI-H1975 cells assessed as early apoptosis cells level at 0.5 uM incubated for 48 hrs by Annexin-V/propidium iodide staining based biparametric cytofluorometric assay (reference value: 2.26%); format: functional
NCI-H1975 [29] = assay: Induction of apoptosis in human NCI-H1975 cells assessed as early apoptosis cells level at 1 uM incubated for 48 hrs by Annexin-V/propidium iodide staining based biparametric cytofluorometric assay (reference value: 2.26%); format: functional

C=CC(=O)Nc1cccc(Nc2nc(Nc3ccc(N4CCN(CC(=O)NCCNc5cccc6c5C(=O)N(C5CCC(=O)NC5=O)C6=O)CC4)cc3OC)ncc2C(F)(F)F)c1 (configuration not stated)
Activity (NCI-H1975 [1]): 3.72% | Activity (NCI-H1975 [2]): 39.9% | Activity (NCI-H1975 [3]): 6.07% | Activity [4]: Active | Activity (NCI-H1975 [5]): 4.01% | IC50 (NCI-H1975 [6]): 240 nM | Ratio IC50 (Homo sapiens): 19 | IC50 [7]: 839 nM | Activity (NCI-H1975 [8]): 22.57% | Activity (NCI-H1975 [9]): 73.71% | Activity (NCI-H1975 [10]): 23.89% | IC50 [11]: 43.1 nM | Activity (NCI-H1975 [12]): 4.8% | DC50 [13]: 356 nM | Activity [14]: Dde | Activity (NCI-H1975 [15]): 17.39% | Activity [16]: Tde | IC50 (A549): > 100000 nM | Activity (NCI-H1975 [17]): 77.8% | Activity (NCI-H1975 [18]): 58% | Activity (NCI-H1975 [19]): 2.22% | Activity (NCI-H1975 [20]): 4.71% | Activity (NCI-H1975 [21]): 72.1% | Activity (NCI-H1975 [22]): 73.3% | Activity (NCI-H1975 [23]): 89.7% | Activity (NCI-H1975 [24]): 2.78% | Activity (NCI-H1975 [25]): 18.3% | IC50 (PC-9): 750 nM | Emax [26]: 83% | Activity (NCI-H1975 [27]): Dde | Activity (NCI-H1975 [28]): 6.16% | Activity (NCI-H1975 [29]): 6.63%
